Laboratory results: US8945595B2, “Insect repellent and attractants” (The Regents of the University of California, priority 2009, dated 2015)

Legend:
[1] = system: CO2-sensitive ab1C neurons; assay: single-sensillum electrophysiology, baseline (spontaneous) activity of ab1C neurons; format: cell-based, Drosophila
Procedure: A number of individual odourants were tested for their ability to inhibit the baseline activity of the neuron using single-sensillum electrophysiology. […] Extracellular single-unit recordings were performed. Odourant stimuli were delivered via Pasteur pipette odour cartridges (see, FIG. 16). Chemicals were of the highest purity available, typically>99% (Sigma-Aldrich). All odourants were diluted in paraffin oil. A controlled volume of air 5 ml/sec was puffed through the odour cartridge containing vapours, and was delivered into a constant humidified airstream of 10 ml/sec that was passed over the fly antenna. […] CO2 stimulus was pulsed through a separate delivery system that delivered controlled pulses (variable 2.5 ml/sec-6.5 ml/sec) into the same humidified airstream, from either a 1%, 5% or 100% tank of CO2 (Airgas). […] Unless mentioned, responses were quantified by subtraction of spontaneous activity from activity during the stimulus. […] Both these compounds are present at electrophysiologically relevant concentrations in Drosophila food sources: 1-hexanol has been detected in various types of fruit including mango, melon, strawberry, passion fruit, muskmelon and banana; 2,3-butanedione is a natural by-product of fermentation by yeast and is thus also present in beer.

Or83b2 mutant flies = assay: T-maze choice assay, avoidance behavior to CO2, Or83b2 mutant flies; format: in vivo, Drosophila; details: odourant with CO2
Procedure: (a) A t-maze is used to show preference to a test odor or to a solvent. Flies are starved 24 hrs prior to assay. All assays performed for 1-min in the dark. A negative preference index indicates avoidance. (a) Flies in a T-maze were offered a choice between a 15 ml tube infused with 0.1ml of CO2 prior to start of assay, and another that was infused with air. (b) wildtype and Or83b−/− flies were presented with CO2, a mixture of CO2 and 2,3-butanedione (d4on), or d4on alone. (c) Flies were exposed to 10 ul d4on 10^−2 for 1 min, allowed to recover for 2 min in clean air and then assayed for avoidance to CO2. A control exposure to 1 min of 2-methylphenol (2 mpol) at 10^−2 and then a recovery period of 2 min is also assayed for avoidance behavior to CO2. (d) Flies are exposed to d4on for 1 min, allowed to recover for 2 min, and then assayed for behavior to ethyl acetate (2AC). Behavior to 2AC without pre-exposure is also measured. […]
T-maze behavioral testing using Drosophila stress odour, CO2, and mixtures were using techniques known in the art, with some modifications. […] The avoidance response was calculated as a Preference Index (PI)=(number of flies in test arm−number of flies in control arm)/(total number of flies in assay). […] The avoidance response was calculated as a Preference Index (PI)=(number of flies in test arm−number of flies in control arm)/(total number of flies in assay). […]

SMILES	inhibition of spontaneous activity of ab1C neurons [1]	avoidance behavior to CO2 (Preference Index) (Or83b2 mutant flies)
CC(=O)C(C)=O [2,3-butanedione]	strongly inhibit	significantly reduced
CCCCCCO [1-hexanol]	strongly inhibit	significantly reduced
